Source: patent publication US20030134859A1 (SANKYO COMPANY, LIMITED, priority 2000, published 2003)

How the values were obtained:
[1] = test system: Mouse preadipocyte strain 3T3-L1; experiment: Inhibition of differentiation as an indication of acetic acid uptake; format: cell-based; conditions: control (0.01% dimethylsulfoxide) = 100%; for activity at 0.1 µM: Mus musculus, 3T3-L1, 0.1 μM test substance, read-out: Rate of Uptake (%) of [2-14C] acetic acid; for Rate of Uptake (%) of [2-14C] acetic acid: 0.1 μM test substance
In short: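 Confluent 3T3-L1 cells induced to differentiate for 4 days (insulin, IBMX, dexamethasone, 5% FBS) with test compound at 0.1 μM final or 0.01% DMSO, then 2 days in insulin maintenance medium, at 37 °C, 10% CO2. [2-14C]acetic acid uptake over 1 hr counted by scintillation; expressed as % of DMSO control.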

[2] = test system: human colon cancer cells COL-2-JCK; experiment: Inhibition of colony forming activity in human colon cancer cells; format: cell-based; conditions: 1 μM test compound, 10 days, sum of colony areas vs control; for inhibition at 1 µM: Homo sapiens, 240 h, read-out: Inhibition Rate (%) against the colony forming activity
Protocol: For the medium to culture the human colon cancer cells, D-MEM/F-12 medium containing inactivated bovine fetal serum at a concentration of 10% (GIBCO) was used. The human colon cancer cells COL-2-JCK (purchased from Institute for Experimental Animals) grown in mass formation in a plastic dish for the cell culture with an inner diameter of 100 mm were stripped off from the dish by using EDTA (ethylenediaminetetraacetic acid) and 0.05% trypsin solution. Then, a cell dilution solution was prepared at a concentration of 100 cells/mL solution which was diluted with the medium (D-MEM/F-12).
Three (3) mL of the cell solution were inoculated in each well of a 6-well plastic plate (300 cells/well). The test compound that was dissolved in DMSO solution so as to be a final concentration of 1 μM of the test compound and that of DMSO solution of 0.1% was added to each well. DMSO solution alone was added into the well for the control so as to be a final concentration of 0.1%.
The cells in each well were cultured for 10 days at 37° C. in the presence of 5% CO2. After the culturing was finalised, each well was washed once with Dulbecco-phosphate-buffer-saline solution (bivalent anion). Then, 1.5 ml of neutral buffered formalin solution containing 0.02% crystal violet was added to each well and the plate was kept stationary for 5 min for fixation and staining the cells. After fixation and staining, the cells were washed with water and were air-dried. Then the sum of the colony area (mm^2) of the stained cancer cells was calculated by using an image analyzer PCA-11 (SystemScience). From the calculated values, the inhibition rate (%) of the compound against the colony forming activity was obtained based on the following equation.
Inhibition Rate (%) against the colony forming activity=(1−A/B)×100
A: Sum of Colony Areas in the Group Treated with 1 μM of the Test Compound
B: Sum of Colony Areas in the Control Group

Rat white adipocytes [3] = experiment: Stimulation of differentiation of the adipocytes (Oil Red O); format: cell-based; conditions: Rattus norvegicus, Adipocyte, 120 h, 100 nM test compound; 5 days; Oil Red O ABS550; control = 100%, blank = 0%; Table 7; read-out: Rate of Differentiation (%)
In short: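 Rat white adipocytes, 5,000 cells/well, cultured 5 days in differentiation-inducing medium with test compound at final 100 nM (0.1% DMSO). Cells fixed, stained with Oil Red O, dye extracted in DMSO and read at 550 nm; differentiation rate expressed relative to vehicle control (100%) and cell-free blank (0%).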

human PPAR γ 2 = target: T1, human PPAR γ 2 (Homo sapiens, UniProt P37231); experiment: PPAR γ transcriptional activity, luciferase reporter, test compound alone; format: cell-based; conditions: concentration indicating Emax/2, MG63 cells transfected with pSG5-hPPARg and pGV-P2-PPRE, 24 hr
T1 construct: expressed in transfected cells; host or cells: human osteosarcoma MG63, transiently co-transfected with pSG5-hPPARg and the reporter pGV-P2-PPRE
T1 sequence (P37231 1-505): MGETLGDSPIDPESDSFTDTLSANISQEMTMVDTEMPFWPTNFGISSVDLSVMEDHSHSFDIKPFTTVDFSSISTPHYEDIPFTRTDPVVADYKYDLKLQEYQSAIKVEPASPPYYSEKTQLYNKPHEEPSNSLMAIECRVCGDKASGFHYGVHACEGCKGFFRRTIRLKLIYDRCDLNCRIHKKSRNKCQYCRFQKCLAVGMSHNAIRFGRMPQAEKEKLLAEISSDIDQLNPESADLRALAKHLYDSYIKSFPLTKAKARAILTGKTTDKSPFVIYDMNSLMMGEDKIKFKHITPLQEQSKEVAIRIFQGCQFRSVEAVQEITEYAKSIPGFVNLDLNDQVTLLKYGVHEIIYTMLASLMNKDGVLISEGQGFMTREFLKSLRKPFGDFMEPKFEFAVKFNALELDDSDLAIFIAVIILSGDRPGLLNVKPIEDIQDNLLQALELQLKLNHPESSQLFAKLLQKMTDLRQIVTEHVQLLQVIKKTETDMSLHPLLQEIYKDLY
Protocol: The primers of the polymerase chain reaction (hereinafter “PCR”) were designed according to the gene sequence of human PPAR γ 2 (GenBANK accession No. D83233). In order to insert the genes into the BamHI site of the plasmid pSG5 ([…] CLONING SYSTEMS), Bgl II sites were added upstream and downstream of the genes encoding human PPAR γ 2 protein. For this, 2 kinds of polynucleotides shown in the sequence numbers 1 and 2 in the sequence table described below (hereinafter “S1” and “AS1”, respectively) were used as PCR primers.
In order to determine transcriptional activity via PPAR γ, 2 kinds of polynucleotides represented in sequence numbers 3 and 4 in the sequence table described below (hereinafter “S2” and “AS2”, respectively) were used for construction of the reporter plasmid having PPAR responsive element. The DNA fragment inserted was designed based on the gene sequence in the promoter region of rat acylCo-A oxidase (J. D. Tugwood, EMBO J., 11 (2), pp433-439 (1992)). For insertion of the DNA fragment into the reporter plasmid pGV-P2 (TOYO INK MFG CO., LTD), a NheI site and an XhoI site were added to the S2 and AS2, respectively.
Using cDNA library (Clontech) derived from human adipose tissue as a template, DNA oligomers S1 and AS1 that were synthesized in the procedure 1 as primers and Ex-Taq™ (TAKARA BIO INC.) as a thermostable DNA polymerase-PCR was carried out. As a result of the PCR, the c.a. 1500 bps DNA fragments were amplified. Each cycle consisted of incubation at 94° C. for 1 min for denaturation of the template, then at 55° C. for 30 sec for annealing of DNA oligomers the PCR primer, and then at 72° C. for 30 sec for extension of the chain. The obtained DNA fragments with approximately 1500 base pairs were digested at the Bgl II sites and were inserted into BamHI sites of pSG5. Thus a human PPAR γ expression plasmid named pSG5-hPPAR g was obtained. The nucleotide sequence of the inserted DNA fragment was confirmed to be identical sequence to the human PPAR γ 2 reported by the dideoxy method.
Vector pGV-P2 digestion products was prepared by digestion using the restriction enzymes, NheI and XhoI, and purified by 1.0% agarose-gel electrophoresis. The DNA oligomers, S2 and AS2 obtained in Procedure 2, were mixed together and were incubated in a hot bath at 94° C. for 1 min. After the annealing was partially broken, they were further incubated at 25° C. for 1 hr. Thus double-stranded DNA with annealing of S2 and AS2 was formed. Then, the terminus of the double-stranded DNA with annealing of S2 and AS2 was phosphorylated with DNA polynucleotide kinase (TOYOBO CO., LTD). After that, it was ligated to the pGV-P2 digestion products which were prepared previously using the NheI site and XhoI site. Thus the reporter plasmid pGV-P2-PPRE was obtained.
Using the plasmid obtained by the procedures 3 and 4, transformation of Escherichia coli HB-101 strain was carried out by conventional methods. HB-101 strain having the plasmid was incubated in L-broth medium (containing 10 g of trypton (Difco), 5 g of yeast extract (Difco), 5 g of sodium chloride in 1 L of aqueous solution) containing 100 μg/ml of ampicillin at 37° C. for 17 hrs. Then, each plasmid was purified by the alkaline-SDS method and employed for the gene transfection to mammalian cells. After mixing the pSG5-hPPARg, PGV-P2-PPRE and LipofectAMINE reagent (GIBCO BRL), the human osteosarcoma MG63 was transiently transfected. Then the cells were recovered. The recovered cells were plated on a 96-well plate so as to be 30,000 cells/well and cultured in a CO2 incubator (NAPCO) at 37° C. for 24 hr under the condition of 5% CO2, 95%-RH.
Various concentrations of the test compound alone were added to culturing medium of the cells prepared in the Procedure 5. After 24 hr of culturing, LT2.0 (TOYO INK MFG CO., LTD), a luciferase substrate, was added to the medium free culture plate. […]

leptin production = experiment: Enhancing activity for leptin production in adipocytes (ELISA); format: cell-based, rat; conditions: 24 hr, leptin concentration as % of control group
In short: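 Collagenase-dispersed epididymal adipocytes from 6-week-old male Wistar Imamichi rats, cultured in DMEM/F-12 (1:1) with test compound at final 1 µM, 100 nM, 10 nM or 1 nM (0.1% DMSO) for 24 h at 37 °C, 5% CO2. Leptin in filtrate measured by ELISA; activity = treated/DMSO-control leptin × 100 (%).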

Rat white adipocytes [4] = experiment: Inhibition of the differentiation of adipocytes (Oil Red O); format: cell-based; conditions: Rattus norvegicus, Adipocyte, 120 h, 100 nM test compound; 5 days; Oil Red O ABS550; control = 100%, blank = 0%; Table 3; read-out: Rate of Differentiation (%)
In short: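 Rat white preadipocytes, 5,000 cells/well, given differentiation medium with compound at 100 nM final (0.1% DMSO) for 5 days at 37 °C. Lipid stained with Oil Red O, eluted in DMSO, read at 550 nm; differentiation % relative to DMSO control (100%) and blank (0%).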

With `Cc1cccc(NC(=O)c2cc([N+](=O)[O-])ccc2Cl)c1` [Example 11, N-(3-Methylphenyl)-(2-chloro-5-nitrophenyl)carboxamide] the activity at 0.1 µM [1] was 67.3% and the inhibition at 1 µM [2] was 15%.

In the case of `CCc1cccc(NC(=O)c2cc([N+](=O)[O-])ccc2Cl)c1` [Example 14, N-(3-Ethylphenyl)-(2-chloro-5-nitrophenyl)carboxamide], the activity at 0.1 µM [1] is reported as 82.1%, the activity at 0.1 µM (Rat white adipocytes [3]) is reported as 121% and the inhibition at 1 µM [2] is reported as 16%.

For `CC(C)(C)OC(=O)Nc1ccc(NC(=O)c2cc([N+](=O)[O-])ccc2Cl)cc1` [Example 45, N-[4-(tert-Butyloxycarbonylaminophenyl)]-(2-chloro-5 nitrophenyl)carboxamide], the “Rate of Uptake (%) of [2-14C] acetic acid” value [1] was 68.9% and the “Inhibition Rate (%) against the colony forming activity” value [2] was 32.0%.

With `Cc1cnc(NC(=O)c2cc([N+](=O)[O-])ccc2Cl)c(C)c1` [Example 74, N-(3,5-Dimethylpyriridin-2-yl)-(2-chloro-5-nitrophenyl)carboxamide] the EC50 (human PPAR γ 2) was 5.1 nM and the “Rate of Uptake (%) of [2-14C] acetic acid” value [1] was 70.4%.

In the case of `COC(=O)c1cscc1NC(=O)c1cc([N+](=O)[O-])ccc1Cl` [Example 76, N-(4-Methoxycarbonylthiophen-3-yl)-(2-chloro-5-nitrophenyl)carboxamide], the EC50 (human PPAR γ 2) is reported as 120 nM and the activity at 0.1 µM [1] is reported as 54.3%.

For `CCOC(=O)c1c(NC(=O)c2cc([N+](=O)[O-])ccc2Cl)sc2c1CCCC2` [Example 79, N-[3-Carboethoxy-4,5,6,7-tetrahydrobenzo[b]thiophen-2-yl]-(2-chloro-5-nitrophenyl)carboxamide], the EC50 (human PPAR γ 2) was 68 nM and the activity at 0.1 µM [1] was 41.5%.

With `Cc1cc(NS(=O)(=O)c2ccc(NC(=O)c3cc([N+](=O)[O-])ccc3Cl)cc2)nc(C)n1` [Example 98, N-[[4-(2,6-Dimethylpyrimidin-4-yl)aminosulfonyl]phenyl]-(2-chloro-5-nitrophenyl)carboxamide] the “Rate of Uptake (%) of [2-14C] acetic acid” value [1] was 89.1%, the “Facilitating activity to produce leptin” value (leptin production; 1 μM) was 117.0% and the “Facilitating activity to produce leptin” value (leptin production; 100 nm) was 110.1%. For the same molecule, the “Inhibition Rate (%) against the colony forming activity” value [2] was 25.0%.

In the case of `O=C(Nc1ccc(S(=O)(=O)Nc2ccccn2)cc1)c1cc([N+](=O)[O-])ccc1Cl` [Example 100, N-[4-[(Pyridin-2-yl)aminosulfonyl]phenyl]-(2-chloro-5-nitrophenyl)carboxamide], the inhibition at 1 µM [2] is reported as 50%.

For `O=C(Nc1ccc(S(=O)(=O)Nc2ccc3cn[nH]c3c2)cc1)c1cc([N+](=O)[O-])ccc1Cl` [Example 103], the EC50 (human PPAR γ 2) was 8.8 nM and the activity at 0.1 µM [1] was 72.1%.

`CCCCNC(=O)NS(=O)(=O)c1ccc(NC(=O)c2cc([N+](=O)[O-])ccc2Cl)cc1` [Example 107, N-[4-(Butylaminocarbonylaminosulfonyl)phenyl]-(2-chloro-5-nitrophenyl)carboxamide] showed an EC50 (human PPAR γ 2) of 88 nM and an activity at 0.1 µM [1] of 71.3%.

In the case of `COC(=O)c1cccc(NC(=O)c2cc([N+](=O)[O-])ccc2Cl)c1` [Example 143, Methyl 3-(2-chloro-5-nitrobenzoylamino)benzoate], the activity at 0.1 µM [1] is reported as 60.1%, the activity at 0.1 µM (Rat white adipocytes [4]) is reported as 84.9% and the inhibition at 1 µM [2] is reported as 25%.

Work on `O=C(Nc1ccc(O)cc1)c1cc([N+](=O)[O-])ccc1Cl` [Example 193, N-(4-Hydroxyphenyl)-(2-chloro-5-nitrophenyl)carboxamide] yielded an EC50 (human PPAR γ 2) of 31 nM and an activity at 0.1 µM (Rat white adipocytes [4]) of 62.4%.
